≈ marks a conversion by molar mass, not a printed value.
Experiments:
S. aureus ATCC29213 = assay: MIC, agar incorporation method; assay type: cell-based, Staphylococcus aureus; details: S. No. 2, S. aureus ATCC29213
S. aureus SG 511 = assay: MIC, agar incorporation method; assay type: cell-based, Staphylococcus aureus; details: S. No. 3, S. aureus SG 511
S. aureus (MRSA) 15187 = assay: MIC, agar incorporation method; assay type: cell-based, Staphylococcus aureus; details: S. No. 4, S. aureus (MRSA) 15187
S. aureus (MRSA) ST450 = assay: MIC, agar incorporation method; assay type: cell-based, Staphylococcus aureus; details: S. No. 6, S. aureus (MRSA) ST450
S. aureus (Smith 49951) = assay: MIC, agar incorporation method; assay type: cell-based, Staphylococcus aureus; details: S. No. 9, S. aureus (Smith 49951)
[1] = test system: S. epidermidis ATCC 12228; assay: MIC, agar incorporation method; assay type: cell-based, Staphylococcus epidermidis; details: S. No. 10, S. epidermidis ATCC 12228
[2] = test system: S. epidermidis (MRSE) 23760; assay: MIC, agar incorporation method; assay type: cell-based, Staphylococcus epidermidis; details: S. No. 11, S. epidermidis (MRSE) 23760
[3] = test system: S. epidermidis (MRSE)32965; assay: MIC, agar incorporation method; assay type: cell-based, Staphylococcus epidermidis; details: S. No. 13, S. epidermidis (MRSE)32965
E. faecalis 29212 = assay: MIC, agar incorporation method; assay type: cell-based; details: S. No. 17, E. faecalis 29212
E. faecalis 21777 = assay: MIC, agar incorporation method; assay type: cell-based; details: S. No. 18, E. faecalis 21777
[4] = test system: Serratia marcescens 12999; assay: MIC, agar incorporation method; assay type: cell-based; details: S. No. 29, Serratia marcescens 12999
S. pneumoniae AB-2 = assay: MIC, agar incorporation method; assay type: cell-based, Streptococcus pneumoniae; details: S. No. 31, S. pneumoniae AB-2
S. pneumoniae AB 10 = assay: MIC, agar incorporation method; assay type: cell-based, Streptococcus pneumoniae; details: S. No. 35, S. pneumoniae AB 10
S. pneumoniae AB 31 = assay: MIC, agar incorporation method; assay type: cell-based, Streptococcus pneumoniae; details: S. No. 36, S. pneumoniae AB 31
S. pneumoniae AB 17 = assay: MIC, agar incorporation method; assay type: cell-based, Streptococcus pneumoniae; details: S. No. 40, S. pneumoniae AB 17
S. pneumoniae AB 21 = assay: MIC, agar incorporation method; assay type: cell-based, Streptococcus pneumoniae; details: S. No. 41, S. pneumoniae AB 21
S. pneumoniae CS 1687 = assay: MIC, agar incorporation method; assay type: cell-based, Streptococcus pneumoniae; details: S. No. 44, S. pneumoniae CS 1687
S. pneumoniae AB 25 = assay: MIC, agar incorporation method; assay type: cell-based, Streptococcus pneumoniae; details: S. No. 45, S. pneumoniae AB 25
S. pneumoniae AB 29 = assay: MIC, agar incorporation method; assay type: cell-based, Streptococcus pneumoniae; details: S. No. 46, S. pneumoniae AB 29
S. pneumoniae ATCC 6303 = assay: MIC, agar incorporation method; assay type: cell-based, Streptococcus pneumoniae; details: S. No. 50, S. pneumoniae ATCC 6303
S. pyogenes 19615 = assay: MIC, agar incorporation method; assay type: cell-based, Streptococcus pyogenes; details: S. No. 51, S. pyogenes 19615
S. pyogenes 25147 = assay: MIC, agar incorporation method; assay type: cell-based, Streptococcus pyogenes; details: S. No. 52, S. pyogenes 25147
Moraxella M1 = assay: MIC, agar incorporation method; assay type: cell-based; details: S. No. 58, Moraxella M1
Moraxella cata. M2 = assay: MIC, agar incorporation method; assay type: cell-based; details: S. No. 59, Moraxella cata. M2
H. influenzae 451 = assay: MIC against Haemophilus strains; assay type: cell-based; details: s. No. 8, H. influenzae 451

| SMILES | MIC (S. aureus ATCC29213) | MIC (S. aureus SG 511) | MIC (S. aureus (MRSA) 15187) | MIC (S. aureus (MRSA) ST450) | MIC (S. aureus (Smith 49951)) | MIC [1] | MIC [2] | MIC [3] | MIC (E. faecalis 29212) | MIC (E. faecalis 21777) | MIC [4] | MIC (S. pneumoniae AB-2) | MIC (S. pneumoniae AB 10) | MIC (S. pneumoniae AB 31) | MIC (S. pneumoniae AB 17) | MIC (S. pneumoniae AB 21) | MIC (S. pneumoniae CS 1687) | MIC (S. pneumoniae AB 25) | MIC (S. pneumoniae AB 29) | MIC (S. pneumoniae ATCC 6303) | further results |
| --- | --- | --- | --- | --- | --- | --- | --- | --- | --- | --- | --- | --- | --- | --- | --- | --- | --- | --- | --- | --- | --- |
| CC(=O)NC[C@H]1CN(c2ccc(N3CCN(c4cc(C(OC(C)=O)OC(C)=O)sc4[N+](=O)[O-])CC3)c(F)c2)C(=O)O1 [Compound No. 5, (S)—N-[[3-[3-Fluoro-4-[4-{3-thienyl(2-nitro)-5-acetyloxy}methylacetate]-1-piperazinyl]phenyl]-2-oxo-5-oxazolidinyl]acetamide] | 0.25 µg/mL (≈ 0.421 µM) | 0.25 µg/mL (≈ 0.421 µM) | 0.25 µg/mL (≈ 0.421 µM) | 1 µg/mL (≈ 1.68 µM) | 0.25 µg/mL (≈ 0.421 µM) | <0.06 µg/mL | <0.06 µg/mL | <0.06 µg/mL | 2 µg/mL (≈ 3.37 µM) | 1 µg/mL (≈ 1.68 µM) | >8 µg/mL | 0.25 µg/mL (≈ 0.421 µM) | 0.25 µg/mL (≈ 0.421 µM) | 0.5 µg/mL (≈ 0.842 µM) | 0.5 µg/mL (≈ 0.842 µM) | 0.5 µg/mL (≈ 0.842 µM) | 0.5 µg/mL (≈ 0.842 µM) | 0.5 µg/mL (≈ 0.842 µM) | 0.5 µg/mL (≈ 0.842 µM) | 0.5 µg/mL (≈ 0.842 µM) | MIC (S. pyogenes 19615): 0.5 µg/mL (≈ 0.842 µM); MIC (S. pyogenes 25147): 0.5 µg/mL (≈ 0.842 µM); MIC (Moraxella M1): 4 µg/mL (≈ 6.74 µM); MIC (Moraxella cata. M2): 2 µg/mL (≈ 3.37 µM); MIC (H. influenzae 451): >16 µg/mL |
| CC(=O)NC[C@H]1CN(c2ccc(N3CCN(c4ccc([N+](=O)[O-])s4)CC3)cc2)C(=O)O1 [Compound No. 6, (S)—N-[[3-[4-[N-1-(5-nitro-2-thienyl)piperazinyl]-phenyl]-2-oxo-5-oxazolidinyl]-methyl]-acetamide] | 2 µg/mL (≈ 4.49 µM) | 2 µg/mL (≈ 4.49 µM) | 2 µg/mL (≈ 4.49 µM) | 2 µg/mL (≈ 4.49 µM) | 1 µg/mL (≈ 2.24 µM) | 1 µg/mL (≈ 2.24 µM) | 1 µg/mL (≈ 2.24 µM) | 1 µg/mL (≈ 2.24 µM) | 1 µg/mL (≈ 2.24 µM) | 1 µg/mL (≈ 2.24 µM) | >16 µg/mL | 0.25 µg/mL (≈ 0.561 µM) | 0.25 µg/mL (≈ 0.561 µM) | 0.5 µg/mL (≈ 1.12 µM) | 0.25 µg/mL (≈ 0.561 µM) | 0.5 µg/mL (≈ 1.12 µM) | 0.5 µg/mL (≈ 1.12 µM) | 0.5 µg/mL (≈ 1.12 µM) | 0.5 µg/mL (≈ 1.12 µM) | 0.5 µg/mL (≈ 1.12 µM) | MIC (S. pyogenes 19615): 0.5 µg/mL (≈ 1.12 µM); MIC (S. pyogenes 25147): 0.5 µg/mL (≈ 1.12 µM); MIC (Moraxella M1): >16 µg/mL; MIC (Moraxella cata. M2): 8 µg/mL (≈ 18 µM); MIC (H. influenzae 451): 16 µg/mL (≈ 35.9 µM) |
